Where “and” joins values, the source holds several entries; their conditions need not be identical. Equal values may be shown once. Calls of active or inactive are those of the source. The rule behind the calls is not given here.

The experiment concerns the target Crimean-Congo hemorrhagic fever virus L protein viral ovarian tumor (vOTU) protease domain. The experiment in a line: CCHFV vOTU protease inhibitor potency, dose response, biochemical, fluorescence, Pep-AMC substrate (AID 720578). Conditions: recombinant CCHFV vOTU, Pep-AMC fluorescence cleavage.
A word on the IC50: it is the concentration needed to halve the response being measured. Take `O=C1C(SCCO)=C(SCCO)C(=O)c2ccccc21`: the IC50 was 2.15 µM.
Next, `CC[C@H](CO)Oc1cc(NCc2cccc(N)c2)c2ncn(C(C)C)c2c1`: 6.52 µM; `Cc1ccc(CNc2ccc(O)cc2)cc1`: “inactive”.
The figure for `C[n+]1c(-c2ccccc2)c2cc(N)ccc2c2ccc(N)cc21` is 3.68 µM; for `COc1cccc2c1C(=O)c1c(O)c3c(c(O)c1C2=O)C[C@@](O)(C(=O)CO)C[C@@H]3O[C@H]1C[C@H](N)[C@H](O)[C@H](C)O1` it is “inactive”.
The entry for `O=c1[nH]c(=S)[nH]c2c1C(c1ccc(Br)cc1)c1c([nH]c(=S)[nH]c1=O)O2` is “inactive”; for `CC1OC(CC(=O)O)CC2=C1C(=O)c1c(O)cccc1C2=O` (centres undefined) it is 3.82 µM; for `CN(C1=C(NC(=O)c2ccccc2)C(=O)c2ccccc2C1=O)C1CCS(=O)(=O)C1` (centres undefined) it is 2.43 µM.
For the compound `CN(C)c1ncc(C2=C(Cl)C(=O)C(N3CCCC3)=C(Cl)C2=O)s1`, the IC50 result was “inactive”.
Next, `Cc1oc2c(c1C(=O)N1CCOCC1)C(=O)c1ccccc1C2=O`: “inactive”.
The figure for `CC[n+]1c(-c2ccccc2)c2cc(N)ccc2c2ccc(N)cc21` is 1.56 µM; for `COc1ccc2noc3c2c1C(=O)c1ccccc1-3` it is 3.08 µM.
Next, `N#CC1=C(S)N(c2ccccc2)C(c2ccc(-c3ccc(Cl)c(Cl)c3)o2)NC1=O` (centres undefined): “inactive”; `Cc1nc2c(o1)C(=O)c1ccccc1C2=Nc1ccccc1`: 7.89 µM.
Consider `COc1cc(C(=O)c2nccc3cc(OC)c(OC)cc23)c([N+](=O)[O-])cc1OC`, for which the IC50 was 1.05 µM.
As for `COC(CNC(=O)c1ccc2c3c(onc13)-c1ccccc1C2=O)OC`, the IC50 was 3.5 µM.
As to `O=C1Nc2ccc([N+](=O)[O-])cc2C1=Nc1cccc(CO)c1`, the IC50 was 8.78 µM.
The entry for `CCCCCCCCCCCCCCCC[n+]1cccc2ccccc21` is “inactive”; for `O=C(COC(=O)c1ccc([N+](=O)[O-])s1)Nc1ncc(C(F)(F)F)cc1Cl` it is 8.84 µM.
Next, `O=C1Cc2ccccc2C(=O)N1`: 0.396 µM.
The entry for `CCCCCCCCCCCCCCCCn1cc[n+](C)c1` is “inactive”.
For `CC(=O)N(C1=C(N)C(=O)c2ccccc2C1=O)c1ccccc1`, the IC50 was 8.38 µM.
The figure for `C[n+]1c2cc(N)ccc2cc2ccc(N)cc21` is 0.945 µM and 3.14 µM; for `CCOC(=O)C1=C(COC(=O)c2ccc([N+](=O)[O-])s2)NC(=O)NC1C` (centres undefined) it is 7.84 µM.
In the case of `COC1=CC(=O)c2c(ccc3ncnc(N)c23)C1=O`, the IC50 is 0.396 µM.
As to `CCC(CNc1cc(OC)cc2cccnc12)NC1CCCCC1` (centres undefined), the IC50 was 6.32 µM.
Take `COc1cc(CCNC2=CC(=O)c3ncccc3C2=O)ccc1O`: the IC50 is 5.25 µM.
Take `CCOC(=O)N=Nc1c2ccccc2c2nc3no[nH]c3nc12`: the IC50 is 2.35 µM.
Consider `CCCCCCCCCCCCN1[C@@H](CC(=O)O)c2cc(F)ccc2S1(=O)=O`, for which the IC50 entry is “inactive”.
As for `NC1=C(Br)C(=O)c2ccccc2C1=O`, the IC50 is 4.48 µM.
Next, `Cn1c(=O)c2c(-c3ccccc3)n(-c3ccc(N)cc3)cc2n(C)c1=O`: 4.53 µM; `O=C1C(N2CCOCC2)=C(n2nnc3ccccc32)C(=O)c2ccccc21`: 2.69 µM.
Next, `O=C1OC(Nc2cc(Br)cc3cccnc23)c2ccccc21` (centres undefined): 5.23 µM; `O=C(O)c1cc(O)c2c(c1)[C@H]([C@H]1c3cc(C(=O)O)cc(O)c3C(=O)c3c(O[C@@H]4O[C@H](CO)[C@@H](O)[C@H](O)[C@H]4O)cccc31)c1cccc(OC3O[C@H](CO)[C@@H](O)[C@H](O)[C@H]3O)c1C2=O` (some centres undefined): 6.47 µM.
The entry for `CNc1ccc2nc3ccccc3[n+](C)c2c1` is “inactive”.
Take `O=[N+]([O-])c1c(Nc2ccccn2)cc(Cl)c2nonc12`: the IC50 result is “inactive”.
For `Cc1cc(C)c(S(=O)(=O)/N=C2\C=C(Nc3ccc(C(=O)O)cc3)C(=O)c3ccccc32)c(C)c1`, the IC50 is 1.72 µM.
With `CC1(OC(=O)C2CCCC2)C(=O)C=C2C=C(c3ccsc3)N(CCCCO)C=C2C1=O` (centres undefined), the IC50 result is “inactive”.
Next, `CC(=O)NC1=C(N(C)C2CCS(=O)(=O)C2)C(=O)c2ccccc2C1=O` (centres undefined): 8.88 µM; `COCCN1C=C2C(=O)C(C)(OC(=O)C3CCCC3)C(=O)C(c3ccccc3)=C2C=C1CCCC(=O)OC` (centres undefined): “inactive”.
The figure for `Cc1ccccc1NC1=C/C(=N\S(=O)(=O)c2ccc(C(=O)O)cc2)c2ccccc2C1=O` is 0.257 µM; for `O=C(COC(=O)c1ccc([N+](=O)[O-])s1)Nc1ccc(Cl)cn1` it is 8.32 µM.
The entry for `CC(C)NC1=C(Cl)C(=O)c2ccccc2C1=O` is “inactive”; for `O=C(OCc1nnc(-c2ccccc2)o1)c1ccc([N+](=O)[O-])s1` it is 7.52 µM; for `COc1ccc(/C=N/NC(=O)c2nn(-c3ccc(Cl)cc3)c(=O)c3c(N)scc23)cc1` it is “inactive”.
As for `Cc1ccc(NC2=CC(=O)C(=O)c3ccccc32)cc1`, the IC50 was 7.14 µM.
The figure for `CCOC(=O)/C=C(\C)Sc1cc(O)c2ccccc2c1O` is 1.57 µM; for `Cc1ccccc1-c1cc2c(nn1)-c1ccccc1C2=O` it is 0.457 µM.
Next, `O=C(O)c1ccc(S(=O)(=O)/N=C2\C=C(Nc3ccccc3F)C(=O)c3ccccc32)cc1`: 0.397 µM; `COc1cc(Br)c(C(=O)c2nccc3cc(OC)c(OC)cc23)cc1OC`: 0.27 µM.
As for `CCOc1ccc(NC(=S)Nc2ccc3nsnc3c2)cc1`, the IC50 is 7.51 µM.
For the compound `O=[N+]([O-])c1ccccc1-c1ccc(C(=S)N2CCCC2)o1`, the IC50 result is “inactive”.
The entry for `O=C1NC(c2ccc(-c3ccccc3[N+](=O)[O-])o2)C(C(=O)c2ccc(Cl)cc2)C(O)(C(F)(F)F)N1` (centres undefined) is “inactive”; for `COc1cc2c(cc1OC)-c1c(OC)c(OC)cc3c1[C@H](C2)N(C)CC3` it is 7 µM; for `O=C1C=C(N2CCCCC2)c2ccccc2C1=O` it is 7.75 µM.
Next, `Cc1ccc(NC2=C/C(=N/S(=O)(=O)c3cccs3)c3ccccc3C2=O)cc1`: 0.405 µM.
The figure for `COc1cc(C=c2c3ccccc3n3c2cc(-c2ccccc2)[n+]3C)cc(OC)c1OC` is 6.76 µM; for `CCOC(=O)c1cc2c(=Cc3ccc(N(C)C)cc3)c3ccccc3n2[n+]1C` it is 7.38 µM.
With `O=C(c1ccccc1)c1coc2c1C(=O)c1ccccc1C2=O`, the IC50 was 6.61 µM.
Next, `CCCCCCCCCCCCCCCC[n+]1ccccc1`: “inactive”; `Cc1ccc(S(=O)(=O)/N=C2\C=C(Nc3cccc(C(=O)O)c3)C(=O)c3ccccc32)cc1`: 0.771 µM.
The figure for `CC(=O)N(C1=C(Cl)C(=O)c2ccccc2C1=O)C1CCCCC1` is 3.54 µM; for `Cc1ccc2c(c1C)-c1c(ccc(C)c1C)C(=O)C2=O` it is 7.79 µM; for `CCOC(=O)N1CCN(C2=C(NS(=O)(=O)c3ccc(C)cc3)C(=O)c3ccccc3C2=O)CC1` it is “inactive”.
The figure for `c1coc(-c2nnc(-c3ccco3)nn2)c1` is 9.33 µM; for `CC(C)C[C@H](NC(=O)c1[nH]cnc1C(=O)N[C@@H](C)C(=O)OC(C)(C)C)C(=O)OC(C)(C)C` it is > 115 µM (inactive); for `O=C(O)c1ccc(NC2=C(n3nnc4ccccc43)C(=O)c3ccccc3C2=O)cc1` it is 4.59 µM.
As to `CC(=O)[C@H]1[C@@H]2C(=O)N(c3cccc(Cl)c3)C(=O)[C@@H]2[C@H]2c3ccccc3C=CN21`, the IC50 result was “inactive”.
The figure for `O=S(=O)(Nc1cc2nc3ccccc3nc2n1Cc1ccccc1)c1ccc(Cl)cc1` is 2.57 µM; for `C=CCN(CC=C)C(=S)Nc1ccc2nsnc2c1` it is “inactive”.
On to `C[n+]1cccc2cccc([O-])c21`, for which the IC50 is 6.41 µM.
Take `Cc1cc2c(cc1C)C(=O)C(Br)=C(N)C2=O`: the IC50 is 5.56 µM.
The entry for `CCOCCCNC1=C(Cl)C(=O)c2ccccc2C1=O` is “inactive”; for `CCCNC1=C(N(C(C)=O)c2cccc(F)c2)C(=O)c2ccccc2C1=O` it is “inactive”.
For `CC(NC1=CC(=O)c2cccnc2C1=O)C(O)c1ccccc1` (centres undefined), the IC50 is 1.94 µM.
Take `O=C(c1ccco1)[C@@H]1[C@@H]2C(=O)N(c3ccc(Br)cc3)C(=O)[C@@H]2C2c3ccccc3C=CN21` (some centres undefined): the IC50 is 5.26 µM.
For the compound `C=CCN1C=CC(=C/C=C(/C#N)C(=O)OCC)C=C1`, the IC50 result was “inactive”.
The entry for `COc1ccc(-n2c3nc4ccccc4nc3c3c(=N)oc(C)nc32)cc1` is “inactive”; for `CCCCn1c(NS(=O)(=O)c2ccccc2)c(C(=O)OCC)c2nc3ccccc3nc21` it is > 115 µM (inactive); for `CCCCCCCCN1C(=O)[C@@H](CC(=O)NCCCOCCCC)C[C@@]2(C(=O)OC)C1=C[C@H](C(C)C)O[C@@H]2C1CC1` it is “inactive”.
`O=c1[nH]c(Nc2ccccc2)cc2cc(Br)ccc12`: the IC50 is 1 µM.
As for `O=C1C=C(Nc2ccccc2C(=O)O)c2ccccc2C1=O`, the IC50 was 3.59 µM.
The entry for `O=C(NC(=S)Nc1ccccc1N1CCCC1)c1cccs1` is “inactive”.
Consider `Cc1cnc(C2OCCO2)c2cccc(N)c12`, for which the IC50 was 2.56 µM.
Next, `Cc1cnc(C=NNC(N)=S)c2cccc(N)c12`: 2.95 µM.
For `Cc1ccc(Cl)cc1NC1=C/C(=N\S(=O)(=O)c2cccs2)c2ccccc2C1=O`, the IC50 is 0.787 µM.
As to `CCn1nc(/C=C/c2ccccc2)nc2c(=O)n(C)c(=O)nc1-2`, the concentration for half-maximal inhibition (IC50) was 0.276 µM.
As to `O=C1C=C(N2CCOCC2)c2ccccc2C1=O`, the IC50 is 4.21 µM.
Next, `O=C1C(=O)c2ccccc2-c2ccccc21`: 2.4 µM; `CC(=O)[C@@H]1[C@@H]2C(=O)N(c3ccc(F)c(Cl)c3)C(=O)[C@@H]2C2c3ccccc3C=CN21` (some centres undefined): “inactive”; `O=C(O)CCCNc1cc(N2CCN(C(=O)c3ccco3)CC2)c2noc3c2c1C(=O)c1ccccc1-3`: 5.72 µM.
For the compound `CC(=O)N(C)c1ccc(N=Cc2cc3c(cc2[N+](=O)[O-])OCO3)cc1`, the IC50 entry is “inactive”.
Consider `C[n+]1c2ccccc2nc2ccc(NCCO)cc21`, for which the IC50 was 5.96 µM.
The figure for `CC1CCCC(NC(=O)COC(=O)c2ccc([N+](=O)[O-])s2)C1C` (centres undefined) is 9.22 µM.

Values taken from PubChem BioAssay AID720578 (The Scripps Research Institute Molecular Screening Center, 2013).
